# Data published in ChEMBL document CHEMBL1133814, “Synthesis and progesterone receptor antagonist activities of 6-aryl benzimidazolones and benzothiazolones” (Bioorg Med Chem Lett, 2001).
# Experiments:
# [1] = molecular target: T1, Progesterone receptor (Homo sapiens, UniProt P06401); assay: Inhibitory concentration against progesterone stimulated alkaline phosphatase activity in T47D human breast carcinoma cell line; assay type: cell-based
# T1 sequence (P06401 whole entry): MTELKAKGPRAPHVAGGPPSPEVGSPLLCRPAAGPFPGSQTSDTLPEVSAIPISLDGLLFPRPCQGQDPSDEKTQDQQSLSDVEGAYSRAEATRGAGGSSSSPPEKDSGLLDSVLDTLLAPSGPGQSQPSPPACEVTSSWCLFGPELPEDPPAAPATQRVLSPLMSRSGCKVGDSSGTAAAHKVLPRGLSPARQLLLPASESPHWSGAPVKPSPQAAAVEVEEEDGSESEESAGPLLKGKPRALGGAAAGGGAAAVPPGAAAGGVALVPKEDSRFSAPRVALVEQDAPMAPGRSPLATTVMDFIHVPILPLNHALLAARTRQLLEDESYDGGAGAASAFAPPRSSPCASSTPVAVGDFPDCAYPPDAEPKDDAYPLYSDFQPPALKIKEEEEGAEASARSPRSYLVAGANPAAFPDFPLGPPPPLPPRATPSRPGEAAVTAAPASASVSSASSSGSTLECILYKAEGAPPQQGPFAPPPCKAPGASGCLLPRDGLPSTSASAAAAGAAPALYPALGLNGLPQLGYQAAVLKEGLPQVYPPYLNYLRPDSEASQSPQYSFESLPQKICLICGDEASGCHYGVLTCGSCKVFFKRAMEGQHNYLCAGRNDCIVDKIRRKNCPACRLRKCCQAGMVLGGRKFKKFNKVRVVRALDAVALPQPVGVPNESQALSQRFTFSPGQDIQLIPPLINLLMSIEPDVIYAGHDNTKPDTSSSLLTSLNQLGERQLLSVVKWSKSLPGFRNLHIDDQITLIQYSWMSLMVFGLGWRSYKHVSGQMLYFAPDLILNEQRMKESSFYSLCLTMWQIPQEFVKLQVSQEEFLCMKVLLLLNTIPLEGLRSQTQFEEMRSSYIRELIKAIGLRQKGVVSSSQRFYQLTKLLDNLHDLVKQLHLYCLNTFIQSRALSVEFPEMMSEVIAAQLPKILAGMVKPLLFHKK
# [2] = molecular target: T1, Progesterone receptor; assay: Inhibitory concentration against progesterone induced PRE-luciferase activity in CV-cells; parameters: species or system Oryctolagus cuniculus
# [3] = molecular target: T1, Progesterone receptor; assay: Binding affinity towards progesterone receptor was measured
SMILES,IC50 [1] [nM],IC50 [2] [nM],Ki [3] [nM]
S=c1[nH]c2cc(-c3cccc(Cl)c3)ccc2n1Cc1ccccc1,> 10000,–,–
O=[N+]([O-])c1cccc(-c2ccc3c(c2)nc(O)n3Cc2ccccc2)c1,> 10000,> 10000,> 10000
O=c1[nH]c2ccc(-c3cccc([N+](=O)[O-])c3)cc2s1,83.8,326,332
S=c1[nH]c2ccc(-c3cccc(Cl)c3)cc2n1Cc1ccccc1,17,–,150
O=c1[nH]c2ccc(-c3cccc([N+](=O)[O-])c3)cc2n1Cc1ccccc1,62,257,714
CC(C)n1c(=O)[nH]c2ccc(-c3cccc([N+](=O)[O-])c3)cc21,73.1,136,525
CCn1c(=O)[nH]c2ccc(-c3cccc(Cl)c3)cc21,29.2,106,~1000
CC(C)n1c(=O)[nH]c2ccc(-c3cccc(Cl)c3)cc21,113,412,525
Cn1c(=O)[nH]c2ccc(-c3cccc(Cl)c3)cc21,1000,–,–
O=c1[nH]c2ccc(-c3cccc(Cl)c3)cc2n1Cc1ccccc1,113,–,521
Cn1c(=O)[nH]c2ccc(-c3cccc([N+](=O)[O-])c3)cc21,1000,–,> 10000
O=[N+]([O-])c1cccc(-c2ccc3[nH]c(=S)n(Cc4ccccc4)c3c2)c1,10,–,30
O=c1[nH]c2ccc(-c3cccc(Cl)c3)cc2s1,460,265,127
Oc1nc2cc(-c3cccc(Cl)c3)ccc2n1Cc1ccccc1,> 10000,3060,3130
